US20110070326A1, “OREGANO EXTRACT AND ITS COMPONENTS FOR ENHANCING VIGILANCE” (DSM IP ASSETS B.V., priority 2006, published 2011)

Experiments:
mice = assay: Porsolt's Forced Swim Test (Behavioral Despair Test), i.p.; type: in vivo, mouse; conditions: 32 mg/kg i.p., −30 min; 15 mice
Method: The test, which detects antidepressant activity, was carried out as described by Porsolt et al supra. Mice which are forced to swim in a situation from which they cannot escape rapidly become immobile. Antidepressants decrease the duration of immobility.
Mice were individually placed in cylinders (Height=24 cm, Diameter=13 cm) containing 10 cm water (22° C.) from which they could not escape. The mice were placed in the water for 6 minutes and the duration of immobility during the last 4 minutes was measured.
15 mice were studied per each of the four groups.
Oregano extract 1 was evaluated at 3 doses (10, 30 and 60 mg/kg), administered i.p. 30 minutes before the test, and compared with a control group, administered vehicle in the same manner. The thus administered […] was dissolved in vehicle (saline solution containing 3% (v/v) DMSO and 3% (v/v) Tween® 80). Venlafaxine (16 mg/kg, i.p.), as comparison substance, and imipramine (32 mg/kg, i.p.), as reference compound, were administered under the same experimental conditions.
Data were analyzed by comparing the treated groups with the control group using unpaired Student's t tests and are presented in Table 3.

mouse = assay: Porsolt's Forced Swim Test after subchronic oral gavage; type: in vivo; conditions: 32 mg/kg p.o., −24, −5, −1 h
Method: This test, which detects antidepressant activity, was performed in the same manner as that described in example 7, except that the route of administering the compound and the doses were different. Oregano extract 4 was evaluated at 3 doses (75, 150, and 300 mg/kg), administered orally (p.o.) 24, 5, and 1 hour before the test, and compared with a vehicle control group. The thus administered […] was dissolved in tocopherol-stripped corn oil “vehicle”). The control group was administered vehicle (p.o.), while imipramine (32 mg/kg, p.o.; dissolved in water) was administered to a separate group as reference compound, 24, 5 and 1 h prior to the test.
Mice were individually placed in cylinders (Height=24.5 cm, Diameter=19.5 cm) containing 13.5 cm water (22° C.) from which they could not escape. The mice were placed in the water for 6 minutes, automatically viewed via a video camera and monitored by a commercially available software system (VideoMot2, TSE Systems GmbH, Germany), and the duration of immobility during the last 4 minutes was measured.
10 mice were studied per each of the five groups. Data were analyzed by comparing the treated groups and the positive control group with the vehicle group using Analysis of Variance (ANOVA) and the Bonferroni post-hoc test.

[1] = target: T1, human serotonin re-uptake transporter (hSERT) (Homo sapiens, UniProt P31645); assay: Serotonin uptake inhibition in HEK-293 cells expressing hSERT; type: cell-based; conditions: single compounds; transfected HEK-293 cells, 20 nM 3H-serotonin, 30 minutes; read-out: IC50 for tritiated serotonin uptake
T1 construct: host or cells: HEK-293
T1 sequence (P31645 whole entry): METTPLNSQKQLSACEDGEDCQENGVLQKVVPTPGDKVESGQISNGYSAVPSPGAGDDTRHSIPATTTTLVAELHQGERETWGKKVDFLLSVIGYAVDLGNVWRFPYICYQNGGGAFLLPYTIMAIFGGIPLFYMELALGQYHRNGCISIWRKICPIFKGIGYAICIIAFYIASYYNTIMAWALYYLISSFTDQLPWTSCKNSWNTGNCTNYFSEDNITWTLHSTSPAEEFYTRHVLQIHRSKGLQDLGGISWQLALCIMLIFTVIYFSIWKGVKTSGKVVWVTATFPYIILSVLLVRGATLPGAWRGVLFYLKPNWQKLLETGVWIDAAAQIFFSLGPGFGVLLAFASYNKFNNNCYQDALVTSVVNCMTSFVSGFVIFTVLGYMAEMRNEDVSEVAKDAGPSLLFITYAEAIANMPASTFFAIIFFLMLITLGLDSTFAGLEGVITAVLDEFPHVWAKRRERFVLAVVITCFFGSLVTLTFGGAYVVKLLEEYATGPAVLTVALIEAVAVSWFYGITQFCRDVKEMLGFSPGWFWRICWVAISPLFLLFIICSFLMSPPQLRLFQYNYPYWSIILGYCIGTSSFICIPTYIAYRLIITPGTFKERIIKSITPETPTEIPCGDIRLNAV
Method: HEK-293 cells stably expressing the human serotonin re-uptake transporter (hSERT) were obtained from R. Blakely, Vanderbilt University, USA. The cells were routinely grown in Dulbecco's Modified Eagle's Medium, purchased from Bioconcept, Allschwil, Switzerland containing 10% fetal calf serum, penicillin, streptomycin, L-glutamine and the antibiotic G418 and passaged by trypsinisation. 1 day prior to the assay cells were seeded in the above mentioned medium. […] Serotonin uptake into the cells was determined by addition of radio-labeled (3H) serotonin (Amersham Biosciences GE Healthcare, Slough, UK) to a concentration of 20 nM, and incubation for 30 minutes at room temperature. Following removal of unincorporated label by gentle washing three times with the above buffer, incorporated serotonin was quantified by liquid scintillation counting.

[2] = target: T2, human dopamine transporter (hDAT) (Homo sapiens, UniProt Q01959); type: cell-based; conditions: transfected CHO-Ki cells, 50 nM [3H]Dopamine; n = 2; read-out: IC50 for inhibition of dopamine reuptake
T2 construct: expressed in transfected cells; host or cells: CHO-Ki (CHO-K1)
T2 sequence (Q01959 whole entry): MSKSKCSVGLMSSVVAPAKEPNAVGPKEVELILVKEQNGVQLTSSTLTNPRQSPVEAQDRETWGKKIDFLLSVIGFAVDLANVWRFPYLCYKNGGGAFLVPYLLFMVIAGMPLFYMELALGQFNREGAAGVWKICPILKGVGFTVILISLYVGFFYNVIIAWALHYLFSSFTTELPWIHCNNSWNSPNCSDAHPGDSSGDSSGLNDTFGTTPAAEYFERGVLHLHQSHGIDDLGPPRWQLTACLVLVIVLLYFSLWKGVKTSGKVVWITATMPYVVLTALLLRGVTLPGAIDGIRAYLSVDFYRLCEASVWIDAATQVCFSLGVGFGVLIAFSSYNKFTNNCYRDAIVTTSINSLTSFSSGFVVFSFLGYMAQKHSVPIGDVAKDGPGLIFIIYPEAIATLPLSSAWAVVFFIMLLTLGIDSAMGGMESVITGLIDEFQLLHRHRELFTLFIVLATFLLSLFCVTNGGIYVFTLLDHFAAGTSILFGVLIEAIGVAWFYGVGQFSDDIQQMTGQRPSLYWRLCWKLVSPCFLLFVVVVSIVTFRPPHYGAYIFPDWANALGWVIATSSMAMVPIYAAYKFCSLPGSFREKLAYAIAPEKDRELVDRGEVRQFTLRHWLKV
Method: CHO-Ki/hDAT cells expressing the human dopamine transporter (hDAT) were plated before the assay. Cells (2×10^5/ml) were incubated with oregano extract and/or vehicle in modified Tris-HEPES buffer pH 7.1 at 25° C. for 20 minutes before addition of 50 nM [^3H]Dopamine for 10 minutes. Specific signal was determined in the presence of 10 μM nomifensine. Cells were then solubilized with 1% SDS lysis buffer. Reduction of [^3H]Dopamine uptake by 50 percent or more (≧50%) relative to vehicle controls indicates significant inhibitory activity.

Question: What does the source list for CN(C)CCCN1c2ccccc2CCc2ccccc21 [Imipramine]?
Answer: DURATION OF IMMOBILITY % change from control (mice): −70%; DURATION OF IMMOBILITY (s) Mean ± s.e.m. (mice): 49.7 ± 7.9 s; DURATION OF IMMOBILITY % change from control (mouse): −50%; DURATION OF IMMOBILITY (s) Mean ± s.e.m. (mouse; 10 mice): 64.59 ± 8.26 s

Question: With Cc1ccc(C(C)C)c(O)c1 [Thymol] as the molecule, how does the IC50 [1] read?
Answer: 5 µM

Question: What does the source list for Cc1cc(O)c(C(C)C)cc1O [Thymoquinol]?
Answer: IC50 [1]: 26.6 µM; IC50 [2]: 65.6 ± 1.2 µM
